In patent US9181259B2 (LEO PHARMA A/S, priority 2012, dated 2015):
Where a name gives a salt, the structure may show the parent alone.

Molecular target: T1, NK1 receptor (Homo sapiens, UniProt P25103)
T1 construct: Measurement of NK1 Receptor Mediated Intracellular [Ca^2+]; Mobilization in U251 MG Cells Using FLIPR; endogenous in cells; host or cells: U251 MG cells
Test: NK1 receptor mediated intracellular [Ca2+] mobilization in U251 MG cells using FLIPR
Format: cell-based
Conditions: antagonist potency against Substance P (EC80), normalized to 100 nM Aprepitant, read-out: U251MG (FLIPR pIC50) (converted)
Method: Measurement of NK1 Receptor Mediated Intracellular [Ca^2+] Mobilization in U251 MG Cells Using FLIPR
U251 MG cells were seeded into black walled clear-bottom 384-well plates (Greiner Bio-One GmbH, Frickenhausen, Germany) at a density of 15,000 cells/well in 50 μl culture medium and cultured overnight in a 37° C. 5% CO2 incubator. The cells were then loaded with the calcium sensitive dye Fluo-4 (Invitrogen) at 1 μM in buffer, containing 0.04%
Pluronic F-127 (Sigma-Aldrich), and 2.5 mM probenecid (Sigma-Aldrich) for 60 min in a humidified atmosphere of 5% CO2. Thereafter, cells were washed three times in washing buffer containing 20 mM HEPES and 2.5 mM probenecid pH 7.3. Serial dilutions of test compounds in assay buffer containing 2% dimethyl sulfoxide (final concentration in the cell plate is 0.5% DMSO) and/or agonist were then automatically pipetted into each test well, and the peak fluorescence intensity was recorded (lex, 488 nm; lem, 540 nm) by the FLIPR instrument (Molecular Devices) for approximately 5 min. To measure antagonist potency, cell plates were first incubated with the test compound and intracellular fluorescence recorded for 5 minutes to check a potential agonist effect of the test compound. Cell plates were quickly removed from the FLIPR instrument and incubated for additional 10 minutes at 37° C. before being moved back to the FLIPR instrument for Substance P (EC80) addition. The response was measured as the peak relative fluorescence change after agonist addition.
The IC50 value is defined as the molar concentration of a test compound that produces a response midway between the fitted top and the fitted bottom. pIC50=−log IC50
Formula is listed as follows: Fit(% Effect calculated)=(A+((B−A)/(1+((C/X)^D)))) • A: bottom value • B: top value • C: […] • D: Hill slope coefficient
Ref: Sullivan E, Tucker E M, and Dale I L. Measurement of [Ca^2+] using the Fluorometric Imaging Plate Reader (FLIPR). Methods Mol Biol 114:125-133, 1999.
Compounds of the present invention were tested according to example 120.

T1 sequence (P25103 whole entry): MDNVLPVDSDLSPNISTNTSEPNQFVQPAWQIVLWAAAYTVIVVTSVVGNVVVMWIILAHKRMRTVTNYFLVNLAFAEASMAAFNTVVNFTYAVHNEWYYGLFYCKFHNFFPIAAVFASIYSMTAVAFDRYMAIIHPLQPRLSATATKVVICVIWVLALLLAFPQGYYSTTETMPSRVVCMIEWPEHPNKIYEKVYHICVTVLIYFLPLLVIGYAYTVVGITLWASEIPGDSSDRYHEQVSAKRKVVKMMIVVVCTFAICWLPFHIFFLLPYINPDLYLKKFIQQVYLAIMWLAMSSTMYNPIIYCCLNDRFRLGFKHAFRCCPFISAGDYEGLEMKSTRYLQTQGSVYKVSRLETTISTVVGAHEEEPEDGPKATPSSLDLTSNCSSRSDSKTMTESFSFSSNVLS

IC50	Compound
0.112 nM	Cc1ccccc1[C@H]1[C@@H]2CC(CCO)(CCO)C(=O)N2CCN1C(=O)N(C)C(CCO)c1cc(C(F)(F)F)cc(C(F)(F)F)c1 (single isomer, unassigned) [Compound 82]
> 100 nM	Cc1ccccc1C1C2CCCN2CCN1C(=O)N(C)Cc1cc(C(F)(F)F)cc(C(F)(F)F)c1 (single isomer, unassigned) [Compound 61, N-{[3,5-bis(trifluoromethyl)phenyl]methyl}-N-methyl-1-(2-methylphenyl)-octahydropyrrolo[1,2-a]piperazine-2-carboxamide]
61.7 nM	Cc1ccccc1C1C2CC(C)(C(=O)O)C(=O)N2CCN1C(=O)N(C)Cc1cc(C(F)(F)F)cc(C(F)(F)F)c1 (centres unmarked) [Compound 8, 2-({[3,5-bis(trifluoromethyl)phenyl]methyl}(methyl)carbamoyl)-7-methyl-1-(2-methylphenyl)-6-oxo-octahydropyrrolo[1,2-a]piperazine-7-carboxylic acid]
1.51 nM	Cc1ccccc1C1C2CC(CO)C(=O)N2CCN1C(=O)N(C)[C@H](C)c1cc(C(F)(F)F)cc(C(F)(F)F)c1 (single isomer, unassigned) [Compound 57]
0.513 nM	Cc1ccccc1C1C2CC(CN3CCCC3)C(=O)N2CCN1C(=O)N(C)Cc1cc(C(F)(F)F)cc(C(F)(F)F)c1 (single isomer, unassigned) [Compound 31, N-{[3,5-bis(trifluoromethyl)phenyl]methyl}-N-methyl-1-(2-methylphenyl)-6-oxo-7-(pyrrolidin-1-ylmethyl)-octahydropyrrolo[1,2-a]piperazine-2-carboxamide]
0.224 nM	Cc1ccccc1C1C2CC(CO)CN2CCN1C(=O)N(C)Cc1cc(C(F)(F)F)cc(C(F)(F)F)c1 (single isomer, unassigned) [Compound 48, N-{[3,5-bis(trifluoromethyl)phenyl]methyl}-7-(hydroxymethyl)-N-methyl-1-(2-methylphenyl)-octahydropyrrolo[1,2-a]piperazine-2-carboxamide]
58.9 nM	Cc1ccccc1C1C2CC(CO)CN2CCN1C(=O)N(C)Cc1cc(C(F)(F)F)cc(C(F)(F)F)c1 (single isomer, unassigned) [Compound 27, N-{[3,5-bis(trifluoromethyl)phenyl]methyl}-7-(hydroxymethyl)-N-methyl-1-(2-methylphenyl)-octahydropyrrolo[1,2-a]piperazine-2-carboxamide; methanesulfonic acid salt]
1.78 nM	COC(=O)C1(C)CC2C(c3ccccc3C)N(C(=O)N(C)Cc3cc(C(F)(F)F)cc(C(F)(F)F)c3)CCN2C1=O (single isomer, unassigned) [Compound 12, Methyl 2-({[3,5-bis(trifluoromethyl)phenyl]methyl}(methyl)carbamoyl)-7-methyl-1-(2-methylphenyl)-6-oxo-octahydropyrrolo{1,2-a}piperazine-7-carboxylate]
15.5 nM	Cc1ccccc1C1C2CC(CCO)C(=O)N2CCN1C(=O)N(C)C(CCO)c1cc(C(F)(F)F)cc(C(F)(F)F)c1 (single isomer, unassigned) [Compound 34, N-{1-[3,5-bis(trifluoromethyl)phenyl]-3-hydroxypropyl}-7-(2-hydroxyethyl)-N-methyl-1-(2-methylphenyl)-6-oxo-octahydropyrrolo[1,2-a]piperazine-2-carboxamide]
0.158 nM	Cc1ccccc1C1C2CC(CCO)C(=O)N2CCN1C(=O)N(C)C(CCO)c1cc(C(F)(F)F)cc(C(F)(F)F)c1 (racemic) [Compound 33, N-{1-[3,5-bis(trifluoromethyl)phenyl]-3-hydroxypropyl}-7-(2-hydroxyethyl)-N-methyl-1-(2-methylphenyl)-6-oxo-octahydropyrrolo[1,2-a]piperazine-2-carboxamide]
1.66 nM	Cc1ccccc1C1C2CC(CO)C(=O)N2CCN1C(=O)N(C)Cc1cc(C(F)(F)F)cc(C(F)(F)F)c1 (single isomer, unassigned) [Compound 20, N-{[3,5-bis(trifluoromethyl)phenyl]methyl}-7-(hydroxymethyl)-N-methyl-1-(2-methylphenyl)-6-oxo-octahydropyrrolo[1,2-a]piperazine-2-carboxamide]
60.3 nM	Cc1ccccc1C1C2CC(CCO)(CCO)CN2CCN1C(=O)N(C)[C@H](C)c1cc(C(F)(F)F)cc(C(F)(F)F)c1 (single isomer, unassigned) [Compound 59]
0.309 nM	CC(=O)N1CCN(CC2CC3C(c4ccccc4C)N(C(=O)N(C)Cc4cc(C(F)(F)F)cc(C(F)(F)F)c4)CCN3C2=O)CC1 (centres unmarked) [Compound 37, 7-[(4-acetylpiperazin-1-yl)methyl]-N-{[3,5-bis(trifluoromethyl)phenyl]methyl}-N-methyl-1-(2-methylphenyl)-6-oxo-octahydropyrrolo[1,2-a]piperazine-2-carboxamide]
11.5 nM	Cc1ccccc1C1C2CC(CO)C(=O)N2CCN1C(=O)N(C)[C@H](C)c1cc(C(F)(F)F)cc(C(F)(F)F)c1 (single isomer, unassigned) [Compound 58]
0.813 nM	COC(=O)C1(C)CC2C(c3ccccc3C)N(C(=O)N(C)Cc3cc(C(F)(F)F)cc(C(F)(F)F)c3)CCN2C1=O (centres unmarked) [Compound 11, Methyl 2-({[3,5-bis(trifluoromethyl)phenyl]methyl}(methyl)carbamoyl)-7-methyl-1-(2-methylphenyl)-6-oxo-octahydropyrrolo{1,2-a}piperazine-7-carboxylate]
7.41 nM	Cc1ccccc1C1C2CCC(=O)N2CCN1C(=O)N(C)Cc1cccc(C(F)(F)F)c1 (single isomer, unassigned) [Compound 5, N-methyl-1-(2-methylphenyl)-6-oxo-N-{[3-(trifluoromethyl)phenyl]methyl}-octahydropyrrolo[1,2-a]piperazine-2-carboxamide]
0.0955 nM	Cc1ccccc1C1C2CC(CCO)(CCO)C(=O)N2CCN1C(=O)N(C)Cc1cc(C(F)(F)F)cc(C(F)(F)F)c1 (racemic) [Compound 42, N-{[3,5-bis(trifluoromethyl)phenyl]methyl}-7,7-bis(2-hydroxyethyl)-N-methyl-1-(2-methylphenyl)-6-oxo-octahydropyrrolo[1,2-a]piperazine-2-carboxamide]
0.955 nM	Cc1ccccc1C1C2CCCN2CCN1C(=O)N(C)Cc1cc(C(F)(F)F)cc(C(F)(F)F)c1 (single isomer, unassigned) [Compound 62, N-{[3,5-bis(trifluoromethyl)phenyl]methyl}-N-methyl-1-(2-methylphenyl)-octahydropyrrolo[1,2-a]piperazine-2-carboxamide]
0.2 nM	Cc1ccccc1C1C2CC(CCO)C(=O)N2CCN1C(=O)N(C)C(CCO)c1cc(C(F)(F)F)cc(C(F)(F)F)c1 (single isomer, unassigned) [Compound 35, N-{1-[3,5-bis(trifluoromethyl)phenyl]-3-hydroxypropyl}-7-(2-hydroxyethyl)-N-methyl-1-(2-methylphenyl)-6-oxo-octahydropyrrolo[1,2-a]piperazine-2-carboxamide]
0.437 nM	C=C1CC2C(c3ccccc3C)N(C(=O)N(C)Cc3cc(C(F)(F)F)cc(C(F)(F)F)c3)CCN2C1=O (single isomer, unassigned) [Compound 32, N-{[3,5-bis(trifluoromethyl)phenyl]methyl}-N-methyl-7-methylidene-1-(2-methylphenyl)-6-oxo-octahydropyrrolo[1,2-a]piperazine-2-carboxamide]
